Data taken from patent US11116776B2, “Intravitreal drug delivery systems for the treatment of ocular conditions” (Aerie Pharmaceuticals, Inc., priority 2015, dated 2021).

Tests used:
[1] = ENVRES-PRE-002 ocular pharmacokinetics after intravitreal injection; assay type: in vivo, New Zealand White rabbits; settings: rabbit; for Cmax: male, New Zealand White, topical or ocular
Procedure: New Zealand White rabbits, 2 males/group/terminal time point, were administered a single bilateral intravitreal injection of either ENV1105 or OZURDEX and were followed for up 1, 2, 3, and/or 5 months. Animals were examined via slit lamp ophthalmoscopy and indirect ophthalmoscopy.
Ocular tissues, including aqueous humor, vitreous humor, and retina, were processed and analyzed for dexamethasone or FA by two of three methods. Dexamethasone present in ocular tissue samples was quantified by ELISA and HPLC. FA present in ocular tissues was quantified by HPLC and mass spectrometry. Prior to analysis, implants or particles were separated from vitreous humor samples via manual removal or centrifugation. Vitreous humor and aqueous humor tissue samples were analyzed as received or diluted with ACN for LC MS/MS or PBS for ELISA.
Animals were followed for up to 3 months, with ocular matrices (retina/choroid, vitreous humor and aqueous humor) collected to determine ocular pharmacokinetics at Months 2 and 3. Ocular exams were conducted on Days 2, 3, 6, 10, weekly through Day 28, and then biweekly through Month 3 to determine tolerability. A summary of the study designed is provided below in Table 10.

[2] = monkey (Chang-Lin 2011); cited from earlier work
[3] = test system: VEGF-induced vascular leakage; settings: rabbit model (Edelman 2005); cited from earlier work

C[C@@H]1C[C@H]2[C@@H]3CCC4=CC(=O)C=C[C@]4(C)[C@@]3(F)[C@@H](O)C[C@]2(C)[C@@]1(O)C(=O)CO [Dexamethasone, (8S,9R,10S,11S,13S,14S,16R,17R)-9-Fluoro-11,17-dihydroxy-17-(2-hydroxyacetyl)-10,13,16-trimethyl-6,7,8,9,10,11,12,13,14,15,16,17-dodecahydro-3H-cyclopenta[a]phenanthren-3-one]
Cmax ([1]; 0.27 mg, aqueous humor, Group 4 (ENV-1R-0119-7-5, 6 implants, 270 μg/eye)): 5.9 ng/mL | Cmax ([1]; 0.27 mg, retina/choroid, Group 4 (ENV-1R-0119-7-5, 6 implants, 270 μg/eye)): 28100 ng/g | Cmax ([1]; 0.27 mg, vitreous humor, Group 4 (ENV-1R-0119-7-5, 6 implants, 270 μg/eye)): 3080 ng/mL | time dexamethasone was detected in the retina and vitreous humor [2]: 6 months | efficacy in VEGF-induced vascular leakage [3]: effective

CC1(C)O[C@@H]2C[C@H]3[C@@H]4C[C@H](F)C5=CC(=O)C=C[C@]5(C)[C@@]4(F)[C@@H](O)C[C@]3(C)[C@]2(C(=O)CO)O1 [fluocinolone acetonide, (1S,2S,4R,8S,9S,11S,12R,13S,19S)-12,19-difluoro-11-hydroxy-8-(2-hydroxyacetyl)-6,6,9,13-tetramethyl-5,7-dioxapentacyclo[10.8.0.0^2,9.0^4.8.0 ^13,18]icosa-14,17-dien-16-one]
day on which concentration peaked ([1]; Group 5 (ENV-1R-0119-33-7), retina/choroid and vitreous humor): 84 days | Cmax ([1]; 0.0407 mg, retina/choroid, Group 5 (ENV-1R-0119-33-7, 40.7 μg/eye)): 3950 ng/g | Cmax ([1]; 0.0407 mg, vitreous humor, Group 5 (ENV-1R-0119-33-7, 40.7 μg/eye)): 298 ng/g
